The source of these data is patent publication US10195185B2, “3-(1H-imidazo[4,5-C]pyridin-2-yl)-1H-pyrazolo[4,3-B]pyridines and therapeutic uses thereof” (Samumed, LLC, priority 2015, dated 2019).

Assay type in all cases: cell-based
Experiment [1] deals with Wnt activity (Wnt-responsive human Sp5 promoter, TCF/LEF binding sites) in SW480 colon carcinoma cells. In words: Wnt activity screening assay: Sp5-Luc luciferase reporter gene in SW480 cells. The procedure, abridged: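 Wnt-driven firefly luciferase in SW480 colon carcinoma cells reports pathway activity after overnight compound exposure (10 μM top concentration, 3-fold steps). Signal is normalized to DMSO controls.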

The subject of the next experiment is SW480 colon cancer cells. In words: Cell viability assay (CellTiter-Blue), four days. To be noted: Homo sapiens, 96 h. The procedure, abridged:
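SW480 cells (~2×10^3 per well) were exposed to compound for four days at 37 °C/5% CO2, using 8-point 1:3 dilutions from 10 μM to 0.0045 μM in duplicate. Viability was read by resazurin reduction (CellTiter-Blue, ~3 h, Ex 560/Em 590 nm). EC50 came from non-linear regression; above 10 μM, percent inhibition at 10 μM is given.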
(In general: Resazurin is reduced to fluorescent resorufin, in cell work by metabolically active cells.)

Experiment [2] concerns Primary human fibroblasts derived from IPF patients (LL29 cells) treated with TGF-β1. Put plainly: Inhibition of the fibrotic process: αSMA staining in TGF-β1 treated fibroblasts. To be noted: Fibroblast, 96 h, LL29 fibroblasts treated with TGF-β1, 4 days. A digest of the protocol: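 LL29 cells plated in F12 with 1% FBS, compounds added as 11-point 1:2 series (10 μM to 1.87 nM, 0.1% DMSO), then TGF-β1 20 ng/mL; 4 days at 37 °C. Fixed, αSMA immunostained, imaged; SYTOX-positive cells excluded. % αSMA-positive cells normalized to TGF-β1 wells; EC50 by non-linear regression, or % inhibition at 10 μM.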

What is called EC50 is the concentration at which the effect is half-maximal. A low value points to greater potency. A word on the inhibition: it is the percentage by which the read-out fell short of the control. `Cc1cn(-c2nccc3[nH]c(-c4n[nH]c5ccc(-c6cncc(OCCN(C)C)c6)nc45)nc23)cn1` [Compound 627, N,N-Dimethyl-2-((5-(3-(4-(4-methyl-1H-imidazol-1-yl)-1H-imidazo[4,5-c]pyridin-2-yl)-1H-pyrazolo[4,3-b]pyridin-5-yl)pyridin-3-yl)oxy)ethan-1-amine]: the EC50 in experiment [1] (10-point dose-response from 10 μM, incubated overnight) is > 10 µM; in the experiment on SW480 colon cancer cells (CellTiter-Blue cell viability), > 10 µM; in experiment [2] it was 4.37 µM. The inhibition at 10 µM in experiment [1] (given for EC50 of >10 μM, 10 μM, read-out: percent inhibition at 10 μM) came to 11.8%; in the experiment with SW480 colon cancer cells (10 μM, read-out: percent inhibition at 10 μM (given for EC50 of >10 μM)), 8.2%.
